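96-well plates; 48 h exposure; 5 concentrations. Endpoints by linear interpolation between flanking doses. Not reached: highest tested concentration assigned. GI50 = concentration required for 50% inhibition of growth.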 The source made the active and inactive calls. Cut-off read from the data, not from the text of the source: active = GI50 up to about 1.1 µM and inactive = higher.
Experiments:
Test in all cases: inhibition of tumour cell growth, NCI panel, 48 h
[1] = test system: UO-31
[2] = test system: CAKI-1
[3] = test system: ACHN
[4] = test system: RXF 393
[5] = test system: A498
[6] = test system: SF-295
[7] = test system: DLD-1
[8] = test system: TK-10
[9] = test system: NCI-H226
[10] = test system: HOP-62
[11] = test system: HCT-15
[12] = test system: COLO 205
[13] = test system: SNB-19
[14] = test system: EKVX
[15] = test system: NCI-H522
[16] = test system: OVCAR-5
[17] = test system: DMS-114
[18] = test system: KM12
[19] = test system: LOX IMVI
[20] = test system: U-251
[21] = test system: K562
[22] = test system: SF-539
[23] = test system: LXFL 529
[24] = test system: M19-MEL
[25] = test system: XF498
[26] = test system: SNB-78
[27] = test system: KM-20L2
[28] = test system: UACC-257
[29] = test system: DMS-273
[30] = test system: A549
[31] = test system: OVCAR-8
[32] = test system: HCC 2998
[33] = test system: M14
[34] = test system: SR
[35] = test system: MOLT-4
[36] = test system: HCT-116
[37] = test system: SK-OV-3
[38] = test system: SNB-75
[39] = test system: SK-MEL-5
[40] = test system: RPMI-8226
[41] = test system: UACC-62
[42] = test system: OVCAR-4
[43] = test system: IGROV-1
[44] = test system: SW-620
[45] = test system: SN12C
[46] = test system: SK-MEL-28
[47] = test system: SK-MEL-2
[48] = test system: HL-60
[49] = test system: CCRF-CEM
[50] = test system: NCI-H460
[51] = test system: SF-268
[52] = test system: HT-29
[53] = test system: Malme-3M
[54] = test system: NCI-H23
[55] = test system: OVCAR-3
[56] = test system: HOP-18
[57] = test system: HOP-92
[58] = test system: 786-0

Measured: GI50

O=[N+]([O-])c1ccc(C2=Nc3ccccc3SC(c3ccccc3)C2)cc1 (configuration not stated)
inactive: [1] 12.9 µM | [2] 17.6 µM | [3] 18.2 µM | [4] 24.6 µM | [5] 22.3 µM | [6] 20.2 µM | [7] 18.9 µM | [8] 38.1 µM | [9] 21.7 µM | [10] 20.7 µM | [12] 17.5 µM | [13] 17 µM | [14] 16.6 µM | [15] 13.4 µM | [16] 19.5 µM | [17] 18.2 µM | [18] 17.1 µM | [19] 13.7 µM | [20] 13.1 µM | [21] 15.8 µM | [22] 21.4 µM | [23] 17.8 µM | [24] 15.4 µM | [25] 17.5 µM | [26] 23.6 µM | [27] 17.6 µM | [28] 26.2 µM | [29] 13.3 µM | [30] 20.4 µM | [31] 20.8 µM | [32] 15.2 µM | [33] 19.4 µM | [34] 18.2 µM | [35] 15.1 µM | [36] 11.9 µM | [37] 21 µM | [38] 18.1 µM | [39] 18.1 µM | [40] 14.8 µM | [41] 13.7 µM | [42] 14.3 µM | [43] 16 µM | [44] 14.5 µM | [45] 17 µM | [46] 21.3 µM | [47] 18.4 µM | [48] 16.5 µM | [49] 14.7 µM | [50] 20.6 µM | [51] 24.7 µM
16.3 µM: [11]

CC(=O)Oc1cc(OC(C)=O)c2c(=O)c3ccccc3n(C)c2c1
inactive: [1] 21.2 µM | [3] 22 µM | [4] 34 µM | [6] 13.1 µM | [7] 21.9 µM | [8] 29.8 µM | [9] 17.1 µM | [52] 23.7 µM | [13] 33.7 µM | [15] 10.4 µM | [17] 18.4 µM | [18] 33.2 µM | [19] 11.5 µM | [22] 18.7 µM | [23] 34.8 µM | [24] 21.6 µM | [26] 31.6 µM | [28] 30.1 µM | [29] 16 µM | [30] 41.3 µM | [31] 16 µM | [35] 38 µM | [53] 25.7 µM | [36] 26.1 µM | [37] 25.2 µM | [38] 27.4 µM | [54] 22.6 µM | [39] 15.1 µM | [41] 31.8 µM | [42] 48.9 µM | [43] 14.7 µM | [45] 25.5 µM | [46] 25.4 µM | [47] 33 µM | [50] 19.4 µM | [55] 56.9 µM | [56] 14 µM | [51] 23.2 µM
42.1 µM: [11]

Cc1[nH]nc2c1C(=O)C=C(N(CCO)c1ccccc1)C2=O
inactive: [1] > 100 µM | [2] > 100 µM | [57] > 100 µM | [58] > 100 µM | [4] > 100 µM | [6] > 100 µM | [7] > 100 µM | [8] > 100 µM | [9] > 100 µM | [52] > 100 µM | [12] > 100 µM | [13] > 100 µM | [14] > 100 µM | [15] > 100 µM | [17] > 100 µM | [18] > 100 µM | [19] 4.05 µM | [20] > 100 µM | [21] > 100 µM | [22] > 100 µM | [23] > 100 µM | [24] > 100 µM | [26] > 100 µM | [28] > 100 µM | [29] > 100 µM | [30] > 100 µM | [31] > 100 µM | [32] > 100 µM | [33] > 100 µM | [35] > 100 µM | [53] > 100 µM | [36] > 100 µM | [37] > 100 µM | [38] 88.9 µM | [54] > 100 µM | [39] > 100 µM | [40] > 100 µM | [41] > 100 µM | [43] > 100 µM | [44] > 100 µM | [45] > 100 µM | [46] > 100 µM | [48] > 100 µM | [49] > 100 µM | [55] > 100 µM | [56] > 100 µM
> 100 µM: [11]

— ChEMBL document CHEMBL1201862, “PubChem BioAssay data set” (2004)
